Data from ChEMBL document CHEMBL4477239 (Bioorg Med Chem, 2016).

Experiments:
[1] = in vitro; details: human, Caco-2
Description: Apparent permeability from apical to basolateral side in Caco2 cells at 1 to 10 uM incubated for 90 mins by LC-MS/MS analysis

[2] = molecular target: Cytochrome P450 2C9 (Homo sapiens, UniProt P11712); assay: Inhibition of CYP2C9 in human liver microsomes at 10 uM using sulfaphenazole as […] preincubated for 5 mins followed by NADPH addition measured after 20 mins by LC-MS/MS analysis; assay type: ADME
[3] = molecular target: ALK tyrosine kinase receptor (Homo sapiens, UniProt Q9UM73); assay: Inhibition of human ALK
[4] = molecular target: Epidermal growth factor receptor (Homo sapiens, UniProt P00533, T790M); assay: Inhibition of human EGFR T790M mutant
[5] = molecular target: Platelet-derived growth factor receptor alpha (Homo sapiens, UniProt P16234); assay: Inhibition of human PDGFRalpha
[6] = molecular target: Mast/stem cell growth factor receptor Kit (Homo sapiens, UniProt P10721); assay: Inhibition of human c-Kit
[7] = molecular target: Macrophage-stimulating protein receptor (Homo sapiens, UniProt Q04912); assay: Inhibition of human RON
[8] = molecular target: Ephrin type-A receptor 2 (Homo sapiens, UniProt P29317); assay: Inhibition of human EPHA2
[9] = molecular target: Tyrosine-protein kinase ABL1 (Homo sapiens, UniProt P00519); assay: Inhibition of human ABL
[10] = molecular target: Receptor tyrosine-protein kinase erbB-4 (Homo sapiens, UniProt Q15303); assay: Inhibition of human ERBB4
[11] = molecular target: T1, Cytochrome P450 2D6 (Homo sapiens, UniProt P10635); assay: Time-dependent inhibition of CYP2D6 in human liver microsomes at 10 uM using paroxetine as […] preincubated with compound followed by NADPH addition by LC-MS/MS analysis; assay type: ADME
[12] = Intrinsic clearance in human liver microsomes assessed per mg of protein at 1 uM preincubated for 5 mins followed by NADPH addition measured after 5 to 30 mins by LC-MS/MS analysis; assay type: ADME, Microsome; details: read-out: CLH
[13] = Intrinsic clearance in rat liver microsomes assessed per mg of protein at 1 uM preincubated for 5 mins followed by NADPH addition measured after 5 to 30 mins by LC-MS/MS analysis; assay type: ADME, Microsome; details: read-out: CLH
[14] = molecular target: T2, Cytochrome P450 1A2 (Homo sapiens, UniProt P05177); assay: Time-dependent inhibition of CYP1A2 in human liver microsomes at 10 uM using furafylline as […] preincubated with compound followed by NADPH addition by LC-MS/MS analysis; assay type: ADME
T2 sequence (P05177 whole entry): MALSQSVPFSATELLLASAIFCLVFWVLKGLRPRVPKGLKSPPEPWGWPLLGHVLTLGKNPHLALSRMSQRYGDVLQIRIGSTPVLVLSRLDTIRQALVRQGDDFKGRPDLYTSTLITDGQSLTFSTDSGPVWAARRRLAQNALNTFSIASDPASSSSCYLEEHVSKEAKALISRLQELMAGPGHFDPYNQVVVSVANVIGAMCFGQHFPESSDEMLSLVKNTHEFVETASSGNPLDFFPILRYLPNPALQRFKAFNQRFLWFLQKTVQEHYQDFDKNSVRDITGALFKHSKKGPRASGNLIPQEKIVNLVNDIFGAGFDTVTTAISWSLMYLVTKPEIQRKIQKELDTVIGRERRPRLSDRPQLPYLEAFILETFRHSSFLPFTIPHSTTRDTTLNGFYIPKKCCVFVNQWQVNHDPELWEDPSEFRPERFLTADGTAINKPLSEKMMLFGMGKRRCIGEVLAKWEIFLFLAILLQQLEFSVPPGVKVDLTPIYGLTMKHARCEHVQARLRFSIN

[15] = Apparent permeability from basolateral to apical side in Caco2 cells at 1 to 10 uM incubated for 90 mins by LC-MS/MS analysis; assay type: ADME, cell-based; details: human, Caco-2
[16] = molecular target: Proto-oncogene tyrosine-protein kinase receptor Ret (Homo sapiens, UniProt P07949); assay: Inhibition of human RET
[17] = molecular target: Vascular endothelial growth factor receptor 1 (Homo sapiens, UniProt P17948); assay: Inhibition of human FLT1
[18] = molecular target: Insulin-like growth factor 1 receptor (Homo sapiens, UniProt P08069); assay: Inhibition of human IGF1R
[19] = molecular target: Ephrin type-B receptor 2 (Homo sapiens, UniProt P29323); assay: Inhibition of human EPHB2
[20] = molecular target: T3, Cytochrome P450 3A4 (Homo sapiens, UniProt P08684); assay: Time-dependent inhibition of CYP3A4 in human liver microsomes at 10 uM using troleandomycin as […] preincubated with compound followed by NADPH addition by LC-MS/MS analysis; assay type: ADME
[21] = molecular target: Epidermal growth factor receptor (Homo sapiens, UniProt P00533); assay: Inhibition of human EGFR
[22] = molecular target: Hepatocyte growth factor receptor (Homo sapiens, UniProt P08581)
Description: Inhibition of c-Met kinase (unknown origin) assessed as decrease in phosphorylation of TK substrate-biotin peptide preincubated for 5 to 10 mins followed by ATP addition measured after 30 mins by HTRF assay

[23] = molecular target: Vascular endothelial growth factor receptor 2 (Homo sapiens, UniProt P35968); assay: Inhibition of human VEGFR2
[24] = molecular target: Proto-oncogene tyrosine-protein kinase Src (Homo sapiens, UniProt P12931); assay: Inhibition of human c- SRC
[25] = molecular target: Platelet-derived growth factor receptor beta (Homo sapiens, UniProt P09619); assay: Inhibition of human PDGFRbeta
[26] = tested on: NCI-H1993; assay: Cytotoxicity against human NCI-H1993 cells assessed as growth inhibition after 72 hrs by CCK-8 assay; details: NCI-H1993, 72 h
[27] = molecular target: Tyrosine-protein kinase receptor UFO (Homo sapiens, UniProt P30530); assay: Inhibition of human AXL
[28] = Efflux ratio of permeability from basolateral to apical side over apical to basolateral side in Caco2 cells at 1 to 10 uM incubated for 90 mins by LC-MS/MS analysis; assay type: ADME, cell-based; details: human, Caco-2
[29] = molecular target: Fibroblast growth factor receptor 1 (Homo sapiens, UniProt P11362); assay: Inhibition of human FGFR1
[30] = molecular target: T1, Cytochrome P450 2D6; assay: Inhibition of CYP2D6 in human liver microsomes at 10 uM using quinidine as […] preincubated for 5 mins followed by NADPH addition measured after 20 mins by LC-MS/MS analysis; assay type: ADME
[31] = molecular target: Cytochrome P450 2C19 (Homo sapiens, UniProt P33261); assay: Inhibition of CYP2C19 in human liver microsomes at 10 uM using tranylcypromine as […] preincubated for 5 mins followed by NADPH addition measured after 20 mins by LC-MS/MS analysis; assay type: ADME
[32] = molecular target: T3, Cytochrome P450 3A4; assay: Inhibition of CYP3A4 in human liver microsomes at 10 uM using ketoconazole as […] preincubated for 5 mins followed by NADPH addition measured after 20 mins by LC-MS/MS analysis; assay type: ADME
[33] = molecular target: T2, Cytochrome P450 1A2; assay: Inhibition of CYP1A2 in human liver microsomes at 10 uM using naphthoflavone as […] preincubated for 5 mins followed by NADPH addition measured after 20 mins by LC-MS/MS analysis; assay type: ADME

Sequence of Hepatocyte growth factor receptor (P08581 whole entry): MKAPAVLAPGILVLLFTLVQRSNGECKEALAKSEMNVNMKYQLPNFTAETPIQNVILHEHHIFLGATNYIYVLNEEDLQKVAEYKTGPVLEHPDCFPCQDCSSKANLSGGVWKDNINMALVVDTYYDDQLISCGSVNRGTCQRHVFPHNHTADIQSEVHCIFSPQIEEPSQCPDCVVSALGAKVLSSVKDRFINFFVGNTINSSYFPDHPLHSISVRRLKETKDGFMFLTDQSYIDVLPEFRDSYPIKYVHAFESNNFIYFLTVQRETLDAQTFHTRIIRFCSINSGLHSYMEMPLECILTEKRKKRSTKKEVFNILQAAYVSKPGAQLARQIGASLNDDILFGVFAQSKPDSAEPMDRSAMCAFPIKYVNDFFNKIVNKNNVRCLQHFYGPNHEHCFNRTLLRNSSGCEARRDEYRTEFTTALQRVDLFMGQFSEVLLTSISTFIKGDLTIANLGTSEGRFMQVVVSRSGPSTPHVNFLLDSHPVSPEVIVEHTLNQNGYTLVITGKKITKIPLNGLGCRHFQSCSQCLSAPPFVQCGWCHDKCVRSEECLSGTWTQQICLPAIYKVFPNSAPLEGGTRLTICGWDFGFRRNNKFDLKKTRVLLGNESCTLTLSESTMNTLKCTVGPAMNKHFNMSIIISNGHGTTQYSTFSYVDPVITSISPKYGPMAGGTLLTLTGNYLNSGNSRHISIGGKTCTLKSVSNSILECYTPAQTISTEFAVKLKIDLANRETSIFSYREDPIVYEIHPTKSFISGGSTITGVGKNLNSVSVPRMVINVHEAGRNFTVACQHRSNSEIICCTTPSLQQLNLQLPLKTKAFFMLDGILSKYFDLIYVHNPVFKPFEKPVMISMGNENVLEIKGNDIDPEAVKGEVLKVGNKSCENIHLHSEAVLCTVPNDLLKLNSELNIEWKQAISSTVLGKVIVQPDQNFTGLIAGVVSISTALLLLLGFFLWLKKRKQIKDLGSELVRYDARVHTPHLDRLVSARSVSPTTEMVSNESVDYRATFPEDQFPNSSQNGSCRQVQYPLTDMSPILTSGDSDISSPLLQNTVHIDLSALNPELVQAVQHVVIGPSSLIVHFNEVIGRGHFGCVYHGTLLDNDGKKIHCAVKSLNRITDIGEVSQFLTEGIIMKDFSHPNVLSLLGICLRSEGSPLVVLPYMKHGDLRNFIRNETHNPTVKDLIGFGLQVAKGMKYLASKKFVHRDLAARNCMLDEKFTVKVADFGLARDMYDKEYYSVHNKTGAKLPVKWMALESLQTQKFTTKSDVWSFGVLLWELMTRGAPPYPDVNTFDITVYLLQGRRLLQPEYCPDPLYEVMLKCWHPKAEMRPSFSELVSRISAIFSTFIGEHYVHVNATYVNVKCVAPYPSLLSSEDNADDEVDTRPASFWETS
T1 sequence (P10635 whole entry): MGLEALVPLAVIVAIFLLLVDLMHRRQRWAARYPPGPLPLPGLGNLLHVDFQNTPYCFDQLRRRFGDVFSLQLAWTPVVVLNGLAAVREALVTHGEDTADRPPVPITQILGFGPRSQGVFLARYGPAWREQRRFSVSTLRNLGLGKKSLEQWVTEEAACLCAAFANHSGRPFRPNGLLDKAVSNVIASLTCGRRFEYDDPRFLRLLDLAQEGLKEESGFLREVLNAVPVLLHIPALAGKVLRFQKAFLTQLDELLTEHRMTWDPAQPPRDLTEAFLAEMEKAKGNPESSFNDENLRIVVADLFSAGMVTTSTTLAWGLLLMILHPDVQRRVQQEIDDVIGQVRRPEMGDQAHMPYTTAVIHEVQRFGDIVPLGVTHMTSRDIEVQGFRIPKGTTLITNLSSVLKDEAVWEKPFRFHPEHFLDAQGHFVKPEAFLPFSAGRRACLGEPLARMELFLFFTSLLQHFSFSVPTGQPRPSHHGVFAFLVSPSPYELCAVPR
T3 sequence (P08684 whole entry): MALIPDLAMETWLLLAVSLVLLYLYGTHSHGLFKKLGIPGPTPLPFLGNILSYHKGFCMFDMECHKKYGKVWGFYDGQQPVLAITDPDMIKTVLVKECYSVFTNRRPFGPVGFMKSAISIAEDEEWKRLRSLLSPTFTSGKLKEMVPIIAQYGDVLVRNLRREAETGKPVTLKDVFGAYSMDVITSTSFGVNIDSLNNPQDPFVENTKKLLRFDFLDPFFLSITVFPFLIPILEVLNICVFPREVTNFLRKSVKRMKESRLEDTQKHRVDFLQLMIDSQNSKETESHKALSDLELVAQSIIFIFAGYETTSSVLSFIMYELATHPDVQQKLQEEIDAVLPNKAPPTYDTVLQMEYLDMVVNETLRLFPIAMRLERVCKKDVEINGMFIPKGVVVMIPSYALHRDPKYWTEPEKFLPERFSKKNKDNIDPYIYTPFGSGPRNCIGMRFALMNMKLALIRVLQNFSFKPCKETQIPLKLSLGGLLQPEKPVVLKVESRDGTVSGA
Sequence of Cytochrome P450 2C19 (P33261 whole entry): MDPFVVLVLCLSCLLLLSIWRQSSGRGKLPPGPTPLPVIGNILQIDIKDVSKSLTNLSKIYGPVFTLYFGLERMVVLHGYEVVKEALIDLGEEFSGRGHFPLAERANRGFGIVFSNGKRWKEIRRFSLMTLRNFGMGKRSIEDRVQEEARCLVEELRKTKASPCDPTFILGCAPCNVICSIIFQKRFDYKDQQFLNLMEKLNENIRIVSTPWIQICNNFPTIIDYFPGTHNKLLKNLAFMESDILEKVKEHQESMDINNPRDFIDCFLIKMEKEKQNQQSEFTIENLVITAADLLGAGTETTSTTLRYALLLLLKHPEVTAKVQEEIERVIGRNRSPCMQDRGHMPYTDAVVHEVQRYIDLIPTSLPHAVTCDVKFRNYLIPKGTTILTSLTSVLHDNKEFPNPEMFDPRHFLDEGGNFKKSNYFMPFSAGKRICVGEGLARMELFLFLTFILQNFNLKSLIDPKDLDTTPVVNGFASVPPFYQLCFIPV
Sequence of Cytochrome P450 2C9 (P11712 whole entry): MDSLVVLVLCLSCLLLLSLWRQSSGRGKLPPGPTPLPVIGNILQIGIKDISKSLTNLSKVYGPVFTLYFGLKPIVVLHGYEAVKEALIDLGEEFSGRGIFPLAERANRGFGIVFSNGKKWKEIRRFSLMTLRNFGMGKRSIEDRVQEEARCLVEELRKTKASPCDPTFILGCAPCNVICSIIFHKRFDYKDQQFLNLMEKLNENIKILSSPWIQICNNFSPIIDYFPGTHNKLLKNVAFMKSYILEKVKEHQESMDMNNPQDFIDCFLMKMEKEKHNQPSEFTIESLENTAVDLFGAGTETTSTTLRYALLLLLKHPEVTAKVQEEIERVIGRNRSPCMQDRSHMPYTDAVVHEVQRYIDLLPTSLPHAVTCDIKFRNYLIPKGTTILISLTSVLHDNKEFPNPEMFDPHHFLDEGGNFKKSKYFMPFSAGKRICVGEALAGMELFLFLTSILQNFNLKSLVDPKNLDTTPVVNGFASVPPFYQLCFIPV
Sequence of Macrophage-stimulating protein receptor (Q04912 25-304 limits assumed): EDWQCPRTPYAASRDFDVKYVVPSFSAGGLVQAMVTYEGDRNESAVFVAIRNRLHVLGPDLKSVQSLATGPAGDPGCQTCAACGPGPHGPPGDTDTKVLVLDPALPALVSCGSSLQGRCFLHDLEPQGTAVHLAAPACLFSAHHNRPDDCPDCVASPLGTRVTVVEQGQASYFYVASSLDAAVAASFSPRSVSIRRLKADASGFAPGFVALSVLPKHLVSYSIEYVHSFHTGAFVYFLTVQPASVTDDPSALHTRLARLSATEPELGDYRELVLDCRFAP
Sequence of Macrophage-stimulating protein receptor (Q04912 310-1400 limits assumed): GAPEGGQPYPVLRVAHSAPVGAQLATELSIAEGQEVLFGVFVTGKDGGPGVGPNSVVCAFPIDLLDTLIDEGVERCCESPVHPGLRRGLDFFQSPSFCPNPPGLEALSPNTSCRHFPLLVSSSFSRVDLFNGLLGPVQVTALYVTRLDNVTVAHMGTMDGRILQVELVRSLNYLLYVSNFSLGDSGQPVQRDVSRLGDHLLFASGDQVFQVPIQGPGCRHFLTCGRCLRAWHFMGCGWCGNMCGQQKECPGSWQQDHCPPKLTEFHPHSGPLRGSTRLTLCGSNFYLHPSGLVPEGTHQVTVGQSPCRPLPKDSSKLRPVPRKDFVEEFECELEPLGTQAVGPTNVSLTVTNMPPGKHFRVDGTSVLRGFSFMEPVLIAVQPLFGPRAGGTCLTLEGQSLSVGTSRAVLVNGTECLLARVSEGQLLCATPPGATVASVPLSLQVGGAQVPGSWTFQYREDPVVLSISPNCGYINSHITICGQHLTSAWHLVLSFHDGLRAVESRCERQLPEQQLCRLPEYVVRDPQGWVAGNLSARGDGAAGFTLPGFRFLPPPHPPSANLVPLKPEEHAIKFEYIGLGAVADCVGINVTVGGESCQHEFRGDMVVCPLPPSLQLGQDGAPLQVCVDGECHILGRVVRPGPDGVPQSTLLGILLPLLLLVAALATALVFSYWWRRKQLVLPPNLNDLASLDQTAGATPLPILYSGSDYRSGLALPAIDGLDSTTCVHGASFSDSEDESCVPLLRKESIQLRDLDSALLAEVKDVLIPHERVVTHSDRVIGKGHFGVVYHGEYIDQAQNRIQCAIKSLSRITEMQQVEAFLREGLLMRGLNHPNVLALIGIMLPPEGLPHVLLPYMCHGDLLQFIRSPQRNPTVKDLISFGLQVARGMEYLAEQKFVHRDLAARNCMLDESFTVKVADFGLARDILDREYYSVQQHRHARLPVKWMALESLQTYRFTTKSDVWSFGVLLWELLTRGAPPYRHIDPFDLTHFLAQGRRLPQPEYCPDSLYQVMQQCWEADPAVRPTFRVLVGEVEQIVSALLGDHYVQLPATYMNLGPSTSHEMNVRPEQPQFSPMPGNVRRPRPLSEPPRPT

Row | Papp A→B at 1.5 h, 10 µM [1] | inhibition (INH) [2] | inhibition (INH) [11] | microsomal CLint at 1 µM [12] | microsomal CLint at 1 µM [13] | inhibition (INH) [14] | Papp B→A at 1.5 h [15] | inhibition (INH) [20] | IC50 [22] | efflux ratio at 1.5 h [28] | inhibition (INH) [31] | inhibition (INH) [32] | Compound | IC50 [26] | further results
1 | – | Active | Active | 51 µL/min/mg | 275 µL/min/mg | Active | – | Active | 0.0013 µM | – | Active | – | CC(c1c(F)cc2ncccc2c1F)n1cnc2ncc(-c3cnc4ccccc4c3)nc21 (configuration not stated) | 0.0461 µM | inhibition (INH) [30]: Active
2 | 39.3 ×10⁻⁶ cm/s | Not Active | Not Active | 9 µL/min/mg | 18 µL/min/mg | Not Active | 40.1 ×10⁻⁶ cm/s | Not Active | 0.0016 µM | 1.02 | Not Active | Not Active | CC(c1cc2cccnc2cc1F)n1cnc2ncc(-c3cnn(C)c3)nc21 (configuration not stated) | 0.0313 µM | inhibition (INH) [30]: Not Active; inhibition (INH) [33]: Not Active
3 | 43.7 ×10⁻⁶ cm/s | Active | – | 23 µL/min/mg | 131 µL/min/mg | – | 47.9 ×10⁻⁶ cm/s | Not Active | 0.00132 µM | 1.1 | – | Active | C[C@@H](c1cc2cccnc2cc1F)n1cnc2ncc(-c3ccc(C(N)=O)c(F)c3)nc21 | 0.0118 µM | –
4 | – | Active | Not Active | 14 µL/min/mg | 77 µL/min/mg | Not Active | – | Not Active | 0.0016 µM | – | Active | Active | CC(c1c(F)cc2ncccc2c1F)n1cnc2ncc(-c3ccncc3)nc21 (configuration not stated) | 0.162 µM | –
5 | – | Active | Not Active | 73 µL/min/mg | 125 µL/min/mg | Not Active | – | Not Active | 0.0029 µM | – | – | – | COC(=O)c1ccc(-c2cnc3ncn(C(C)c4cc5cccnc5cc4F)c3n2)cc1F (configuration not stated) | 0.0602 µM | –
6 | 1.46 ×10⁻⁶ cm/s | – | – | – | – | – | 3.3 ×10⁻⁶ cm/s | – | – | 2.27 | – | – | CC(=O)O[C@H]1C(=O)[C@@]2(C)[C@H]([C@H](OC(=O)c3ccccc3)[C@]3(O)C[C@H](OC(=O)[C@H](O)[C@@H](NC(=O)c4ccccc4)c4ccccc4)C(C)=C1C3(C)C)[C@]1(OC(C)=O)CO[C@@H]1C[C@@H]2O [PACLITAXEL] | – | –
7 | 21.5 ×10⁻⁶ cm/s | – | – | – | – | – | – | – | – | – | – | – | CC(C)NCC(O)COc1cccc2ccccc12 (configuration not stated) [PROPRANOLOL] | – | –

The remaining lines, values behind:

Row | Compound | Papp A→B at 1.5 h, 10 µM [1] | inhibition (INH) [2] | inhibition (INH) [11] | microsomal CLint at 1 µM [12] | microsomal CLint at 1 µM [13] | inhibition (INH) [14] | Papp B→A at 1.5 h [15] | inhibition (INH) [20] | IC50 [22] | efflux ratio at 1.5 h [28] | inhibition (INH) [31] | inhibition (INH) [32] | IC50 [26] | further results
8 | O=C1OC2(c3ccc([O-])cc3Oc3cc([O-])ccc32)c2ccccc21.[Na+].[Na+] | 2.72 ×10⁻⁶ cm/s | – | – | – | – | – | – | – | – | – | – | – | – | –
9 | C[C@@H](c1cc2cccnc2cc1F)n1cnc2ncc(-c3cnn(C)c3)nc21 | 46.6 ×10⁻⁶ cm/s | Active | Not Active | 8 µL/min/mg | 49 µL/min/mg | Not Active | 48.6 ×10⁻⁶ cm/s | Not Active | 0.00145 µM | 1.04 | – | – | 0.0247 µM | IC50 [3]: > 30 µM; IC50 [4]: > 30 µM; IC50 [5]: 27.6 µM; IC50 [6]: > 30 µM; IC50 [7]: > 30 µM; IC50 [8]: > 30 µM; IC50 [9]: > 30 µM; IC50 [10]: > 30 µM; IC50 [16]: > 30 µM; IC50 [17]: > 30 µM; IC50 [18]: > 30 µM; IC50 [19]: > 30 µM; IC50 [21]: > 30 µM; IC50 [23]: 20.6 µM; IC50 [24]: > 30 µM; IC50 [25]: 26.2 µM; IC50 [27]: > 30 µM; IC50 [29]: > 30 µM
10 | CC(c1c(F)cc2ncccc2c1F)n1cnc2ncc(-c3cnn(C)c3)nc21 (configuration not stated) | – | Active | Not Active | 11 µL/min/mg | 63 µL/min/mg | Not Active | – | Not Active | 0.001 µM | – | Active | – | 0.0355 µM | –
11 | CNC(=O)c1ccc(-c2cnc3ncn(C(C)c4cc5cccnc5cc4F)c3n2)cc1F (configuration not stated) | 39.8 ×10⁻⁶ cm/s | Active | – | 16 µL/min/mg | 85 µL/min/mg | – | 39.5 ×10⁻⁶ cm/s | Active | 0.0023 µM | 0.99 | Active | Active | 0.0327 µM | inhibition (INH) [30]: Active
12 | COC(=O)c1ccc(-c2cnc3ncn(C(C)c4c(F)cc5ncccc5c4F)c3n2)cc1F (configuration not stated) | – | Active | Not Active | 290 µL/min/mg | 179 µL/min/mg | Not Active | – | Not Active | 0.0049 µM | – | – | – | 0.0294 µM | –
13 | CC(c1cc2cccnc2cc1F)n1cnc2ncc(-c3ccc(C(N)=O)c(F)c3)nc21 (configuration not stated) | 82.3 ×10⁻⁶ cm/s | Active | Not Active | 14 µL/min/mg | 85 µL/min/mg | Not Active | 81.4 ×10⁻⁶ cm/s | Not Active | 0.0017 µM | 0.99 | – | – | 0.0195 µM | –
